# Reference: publication PMC2759397 (Bioorganic & medicinal chemistry, 2009)
# What was measured:
# opioid receptors = test: Radioligand competition assay, [3H]diprenorphine, rat brain membranes; type: binding; details: data not shown
# δ opioid receptors = δ opioid receptors (Mus musculus, UniProt P32300); details: read-out: Agonist activity (% inhibition of contraction at 1 µM), MVD
# μ opioid receptors [1] = target: T1, μ opioid receptors (Cavia porcellus, UniProt A0ACM8Q262); set-up: species or system guinea pig
# delta opioid receptors = delta opioid receptors (Mus musculus, UniProt P32300)
# μ opioid receptors [2] = target: T1, μ opioid receptors; set-up: species or system guinea pig; details: read-out: Agonist activity (% inhibition of contraction at 1 µM), GPI/LMMP
# T1 sequence (A0ACM8Q262 1-400): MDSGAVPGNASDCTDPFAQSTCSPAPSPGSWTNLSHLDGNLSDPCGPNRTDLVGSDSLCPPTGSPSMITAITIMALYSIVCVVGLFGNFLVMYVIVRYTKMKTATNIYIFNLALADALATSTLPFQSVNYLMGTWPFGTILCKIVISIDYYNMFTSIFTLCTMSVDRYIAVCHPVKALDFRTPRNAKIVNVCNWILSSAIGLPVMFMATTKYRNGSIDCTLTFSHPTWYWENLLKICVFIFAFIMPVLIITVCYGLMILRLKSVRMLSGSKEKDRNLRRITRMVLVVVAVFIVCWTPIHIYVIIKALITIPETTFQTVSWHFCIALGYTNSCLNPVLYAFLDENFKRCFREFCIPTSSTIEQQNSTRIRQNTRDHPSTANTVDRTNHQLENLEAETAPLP
# Sequence of δ opioid receptors (P32300 whole entry): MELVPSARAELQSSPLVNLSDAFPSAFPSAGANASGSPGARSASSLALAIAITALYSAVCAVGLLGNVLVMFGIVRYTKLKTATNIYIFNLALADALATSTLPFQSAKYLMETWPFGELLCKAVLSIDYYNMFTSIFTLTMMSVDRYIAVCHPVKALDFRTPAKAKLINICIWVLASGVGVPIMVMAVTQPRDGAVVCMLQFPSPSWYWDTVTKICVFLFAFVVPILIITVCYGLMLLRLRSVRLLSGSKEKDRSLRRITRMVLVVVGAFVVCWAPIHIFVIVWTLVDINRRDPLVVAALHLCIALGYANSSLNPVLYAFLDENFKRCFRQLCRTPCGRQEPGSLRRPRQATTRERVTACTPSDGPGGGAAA
# Sequence of delta opioid receptors (P32300 whole entry): as above
smiles,measurement,setting,value
"COc1ccc2c(c1)c(CC(=O)O)c(C)n2C1CCN(CCc2ccccc2)CC1 [Compound 9f, [5-methoxy-2-methyl-1-(1-phenethyl-piperidin-4-yl)-1H-indol-3-yl]-acetic acid]",inhibition constants against binding of [3H]diprenorphine,opioid receptors,micromolar range
same,inhibition at 1 µM,δ opioid receptors,0%
same,PL-017 Antagonism at 1 µM in the GPI/LMMP,μ opioid receptors [1],none at 1 µM
same,DPDPE Antagonism at 1 µM in the MVD,delta opioid receptors,none at 1 µM
same,inhibition at 1 µM,μ opioid receptors [2],6%
"Cc1c(CC(=O)O)c2ccccc2n1C1CCN(C)CC1 [Compound 9a, [2-methyl-1-(1-methyl-piperidin-4-yl)-1H-indol-3-yl]-acetic acid]",inhibition at 1 µM,δ opioid receptors,17.9%
same,PL-017 Antagonism at 1 µM in the GPI/LMMP,μ opioid receptors [1],none at 1 µM
same,DPDPE Antagonism at 1 µM in the MVD,delta opioid receptors,none at 1 µM
same,inhibition at 1 µM,μ opioid receptors [2],0.7%
"COc1ccc2c(c1)c(CC(=O)O)c(C)n2C1CCN(C)CC1 [Compound 9d, [5-methoxy-2-methyl-1-(1-methyl-piperidin-4-yl)-1H-indol-3-yl]-acetic acid]",inhibition at 1 µM,δ opioid receptors,2.8%
same,PL-017 Antagonism at 1 µM in the GPI/LMMP,μ opioid receptors [1],none at 1 µM
same,DPDPE Antagonism at 1 µM in the MVD,delta opioid receptors,none at 1 µM
same,inhibition at 1 µM,μ opioid receptors [2],0%
"Cc1c(CC(=O)O)c2ccccc2n1C1CCN(CCc2ccccc2)CC1 [Compound 9c, [2-methyl-1-(1-phenethyl-piperidin-4-yl)-1H-indol-3-yl]-acetic acid]",inhibition constants against binding of [3H]diprenorphine,opioid receptors,micromolar range
same,inhibition at 1 µM,δ opioid receptors,19.5%
same,PL-017 Antagonism at 1 µM in the GPI/LMMP,μ opioid receptors [1],none at 1 µM
same,DPDPE Antagonism at 1 µM in the MVD,delta opioid receptors,none at 1 µM
same,inhibition at 1 µM,μ opioid receptors [2],3.1%
